From patent US20020055174A1, “Complex for transferring an anionic substance of interest into a cell” (priority 2000, published 2002)
Entries after “also recorded” stand apart in the source; their conditions may differ. Ends that are not written are not given here.

Tests used:
[1] = Liposome leakage assay, POPC liposomes containing calcein; conditions: pH5 and pH7, 20 μg as starting point
Experimental: Leakage activity was plotted against peptide concentration.
The peptide ppTG1 was tested for its capacity to cause membrane disruption in a liposome leakage assay with POPC liposomes containing the fluorescent product calcein. […] Release of calcein by Triton X-100 treatment was taken as positive control reaction, incubation with water served as negative control. The membranolytic activity of peptide ppTG1 (20 μg as starting point) was compared with those of equal quantities (20 μg) of JTS-1, JTS-1-K13 and KALA.

293-EBNA cells = assay: Transfection in vitro, luciferase plasmid pTG11056; type: cell-based
Experimental: (§1) Cells were plated on 24 well plates at a density of 4×10^4 (293-EBNA ) or 7×10^4 (HeLa, Renca) cells/well in DMEM supplemented with 10% FCS. The next day, the medium was replaced by 200 μl serum-free DMEM and plasmid (pTG11056 or pTG11236)/peptide complexes or plasmid/peptide/lipid complexes were prepared in 30 μl 0.9% NaCl or 5% glucose. After 20 min at room temperature these complexes were added to the cells which were then incubated for 2-3 h at 37° C. and 5% CO2 before 1 ml serum-containing DMEM was added. Approximately 20-hours later, cells were lysed by addition of 100 μl 1× Promega lysis buffer, 20 μl of the lysates were analysed for luciferase activity. Proteins were quantified with the bicinchonic acid (BCA) colorimetric method (Smith, Anal. Biochem. 150 (1985), 76-85).
4×10^4 293-EBNA cells, plated on 24 well plates the day before, were transfected with 0.5 μg, 0.1 μg, 0.05 μg and 0.01 μg of the plasmid pTG11056. The plasmid was either mixed with completely or uncompletely DNA-complexing amounts of ppTG1 in 30 μl 5% glucose and after 20 min at room temperature the mixture was added to the cells which were incubated in 200 μl serum-free medium. Further, pTG11056 was formulated with the established transfection reagents Lipofectin and PEI. […] After twenty hours, cells were washed and luciferase activity was determined in ⅕ of the lysed cells.

HeLa cells [2] = assay: Transfection in the presence of Bafilomycin A; type: cell-based; conditions: 175 nM Bafilomycin A, 150 ng pTG11236
Experimental: Transfection in the presence of Bafilomycin A: 6×10^4 HeLa cells were plated on 24 well plates. Cells were treated with 175 nM Bafilomycin A 30 min before and throughout the transfection (1 h incubation of cells with transfection mix in the absence of serum).
Bafilomycin A is a specific inhibitor of the vacuolar proton pump. Treatment with Bafilomycin inhibits the acidification of late endosomes. HeLa cells were treated with Bafilomycin A (175 nM) 30 min before and throughout the transfection (1 h incubation with transfection complexes in the absence of serum). 6×10^4 cells were transfected with 150 ng pTG11236 using PEI or ppTG1. The luciferase assay was performed 1 day after transfection.

CHO cells = assay: Transfection in vitro, luciferase plasmid pTG11236; type: cell-based
Experimental: (§2) A comparison of ppTG1 and KALA was carried out in HeLa and CHO cells. 5×10^4 cells were seeded on 24 well plates. The next day, cells were transfected with 500 ng and 50 ng of pTG11236, complexed with ppTG1 or KALA in 30 μl 0.9% NaCl. The charge ratio +/− varied from 1, 2, 3, 4, 7 to 10. Cells were harvested 20 h after transfection and lysis was obtained in 100 μl Promega lysis buffer. Luciferase activity and total protein concentrations in 20 μl were determined.

HeLa cells [3] = assay: Transfection in vitro, luciferase plasmid pTG11236; type: cell-based
Experimental: as §1
In another experiment, 7×10^4 HeLa cells, seeded on 24-well plates the day before transfection, were transfected with 0.5 μg or 0.05 μg pTG11236, complexed with Lipofectin or ppTG1. The plasmid/peptide complexes were prepared in 30 μl of 5% glucose or 0.9% NaCl and added to the cells (200 μl serum-free medium) after 20 min at room temperature. Serum-containing medium was added after 3 h, the cells were harvested the next day.
A comparison of the effect on transfection efficiency of ppTG1 and JTS-1-K13 was carried out in HeLa cells. Complexes of 0.5 μg or 0.05 μg pTG11236 were formed with increasing amounts the respective peptide.
as §2
HeLa cells were seeded at a density of 6×10^4 cells on 24 well plates. The next day, cells were incubated with 200 μl serum-free medium, 30 μl of plasmid (50 ng)/peptide/lipid mixtures were added and incubated for 3 h at 37° C. in 5% CO2. 1 ml of DMEM+10% FCS was then added. The next day, the medium was removed and cells were washed with 500 μl of PBS and subsequently treated with 100 μl of Promega lysis buffer. Plates were stored at −80° C. until luciferase activity was measured of 20 μl of the cell lysate. The protein assay was performed using the Pierce BCA kit.
JTS1 was dissolved to 1 mg/ml in 1 mM NaOH and mixed with DNA diluted in 5% glucose. ppTG1 was then added to this solution. The pcTG90/DOPE ppTG1 mixtures were prepared as described in Example 6. Transfection assays were performed on HeLa cells with 50 ng of plasmid as described in Example 6.
The series of ppTG1 derivatives listed in Material and Methods were tested for their gene transfer efficiencies in Hela cells. 6×10^4 cells were transfected with 50 ng pTG11236 complexed with increasing amounts of peptide. Luciferase activity was analyzed day 1 after transfection. The results are shown in FIG. 10B (ppTG20, ppTG21), FIG. 10C(ppTG25, ppTG26, ppTG27), FIG. 10D (ppTG28 to ppTG33), FIG. 10E (PEG-ppTG1 and PEG-ppTG20), FIG. 10F (ppTG22 to ppTG24) and FIG. 10G (ppTG20-D).

## GLFKALLKLLKSLWKLLLKA
[1]
  membrane disruption (calcein release): capable of causing membrane disruption
293-EBNA cells; 0.05 μg pTG11056 mixed with 0.065 μg ppTG1, charge ratio around 1
  transfection efficiency: still showed high transfection efficiency
293-EBNA cells; 0.5 μg pTG11056 complexed with 0.65 μg ppTG1, charge ratio around 1
  luciferase activities: higher than those observed with complexes formed with Lipofectin or PEI
HeLa cells [2]
  effect of Bafilomycin A on transfection efficiency: not diminished; also recorded: did not influence the transfection efficiency
CHO cells
  more efficient than the complex comprising KALA, best case: 2500 fold
CHO cells; 50 ng pTG11236, optimum charge ratios
  more efficient in gene transfer than KALA: 68 fold
CHO cells; 500 ng pTG11236, optimum charge ratios
  more efficient in gene transfer than KALA: 9 fold
HeLa cells [3]; 0.05 μg pTG11236, complexes in 0.9% NaCl
  luciferase activities: higher luciferase activities than observed for Lipofectin formulations
HeLa cells [3]; 0.5 μg or 0.05 μg pTG11236 with 1.17 μg or 0.117 μg ppTG1, charge ratio 1.8
  luciferase activities: comparable luciferase activities as observed for DNA formulated with Lipofectin
HeLa cells [3]; HeLa
  more efficient than the complex comprising KALA, best case: 3000 fold
